Results published in article PMC11376277, “Crystallographic fragment screen of the c-di-AMP-synthesizing enzyme CdaA from Bacillus subtilis” (Acta Crystallographica Section F: Structural Biology …, 2024).

Target: T1, EfCdaA (Enterococcus faecium, UniProt Q3Y0C9)
T1 construct: gene dacA; N-terminally truncated soluble DAC domain; codon-optimized synthetic DNA, pET-28a, E. coli Rosetta (DE3); tag cut with PreScission
T1 sequence (Q3Y0C9 121-269): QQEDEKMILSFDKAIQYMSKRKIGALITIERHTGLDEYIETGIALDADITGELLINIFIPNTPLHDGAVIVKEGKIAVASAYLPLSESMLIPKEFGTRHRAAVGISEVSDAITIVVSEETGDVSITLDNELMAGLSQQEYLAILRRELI
Assay: ITC, […] binding model
Conditions: 25 C, pH 7.5, 20 mM Tris-HCl, 300 mM NaCl, 5% DMSO, 10 mM MgCl2

Row | Compound | Kd [µM]
1 | Nc1ncnc2c1ncn2[C@@H]1O[C@H](COP(=O)(O)OP(=O)(O)OP(=O)(O)O)[C@@H](O)[C@H]1O [ATP] | 237
2 | CC(C)OC(=O)OCOP(=O)(CO[C@H](C)Cn1cnc2c(N)ncnc21)OCOC(=O)OC(C)C [tenofovir disoproxil] | 7.91
